We go through six compounds from patent publication US20200048208A1, “TREATMENT OF DISEASES OR DISORDERS CAUSED BY INDUCED NFkB TRANSCRIPTIONAL ACTIVITY” (Senex Biotechnology, Inc., priority 2011, published 2020).

In data set [1] the test system is induction of transcription by p21. The note with it: at concentrations that inhibit NFκB (Poole et al., 2004); cited from earlier work.
For another data set, the system named is p50. Briefly: TransAM NFκB DNA-binding ELISA of nuclear extracts, p50. It is filed as cell-based, human. The conditions noted are these: HT1080 and HEK293 cells, untreated and TNFα-treated; 5 μM Senexin A, 60 μM TPCK, 10 μM MG115 for 3 hours. From the text:
(§1) Given the role of NFxB in the induction of transcription by p21 (Poole et al., 2004), we have tested SNX2 for the ability to decrease the amount of active NFκB in the nucleus, a general assay for different known classes of NFκB inhibitors. As shown in FIG. 8 of US patent publication 20080033000, we have found, using ACTIVE MOTIF TransAM™ NFκB p65 Chemi and NFκB p50 Chemi Transcription Factor Assay Kits, that SNX2 had no effect on the amount of p50 or p65 NFκB subunits binding to NFκB consensus sequence in nuclear extracts from HT 1080 cells, untreated or treated with NFκB inducer TNFα.
(§2) The DNA-binding activities of nuclear NFκB proteins were measured by the ELISA-based TransAM NFκB Family Transcriptional Factor Assay Kit (Active Motif) following manufacturer's protocol. HT1080 and HEK293 cells were pretreated with inhibitors (5 μM Senexin A, 60 μM TPCK, 10 μM MG115) for 3 hours and then treated with 10 ng/ml TNF for 30 minutes before nuclear extract preparation with Nuclear Extraction Kit (Active Motif). Nuclear extracts were assayed at 5 μg/well for p65 and 2.5 μg/well for p50 DNA binding.

The test system of data set [2] is NFκB-inducible genes. Nature of the data set: QPCR of NFκB-inducible genes in TNFα-treated p21−/− HCT116 cells. The conditions noted are these: p21−/− HCT116, 5 μM pretreatment 1 hour, 10 ng/ml TNFα 30 minutes. It is filed as cell-based, human. The method, then:
(§3) We have verified the effect of CDK8/19 inhibition on NFκB-mediated induction of transcription in human HCT116 colon carcinoma cells, where we also used the availability of a p21−/− derivative of this cell line (Waldman et al., 1996) to determine if this effect depends on p21. The wild-type and p21−/− HCT116 cells were seeded in 6-well plates at 6×10^5 cells/well in media with 10% serum and cultured overnight. The next day, cells were pretreated with 5 μM Senexin A or with DMSO vehicle control for 1 hour and treated with or without 10 ng/ml TNFα for 30 minutes. Cells were then lysed for RNA purification and QPCR analysis of NFκB-inducible genes.

Data set [3] deals with NFκB-dependent promoter. Briefly: NFκB-GFP reporter assay, TNFα induction (96-well fluorometric). The note with it: HT1080-based NFκB-GFP reporter cells. It is filed as cell-based, human. How it is done: (§4) We have tested the effects of SNX2-class compounds on NFκB transcriptional activity. These assays were conducted with a reporter cell line that we derived from HT1080 p21-9 cells carrying IPTG-inducible p21 (Chang et al., 1999) after transduction with Cignal Lenti NFκB Reporter lentivirus (SA Biosciences), which expresses GFP from a NFκB-dependent minimal promoter. The reporter cell line was then selected for a high basal level of NFκB-dependent GFP expression, which was further increased by TNFα or upon p21 induction by IPTG.
The ability of SNX2-class compounds to prevent the induction of the NFκB-dependent promoter by p21 was not surprising, since these compounds were identified by their ability to prevent p21-mediated induction of another promoter (CMV) (Chang et al., 2008), and NFκB stimulation by p21 was already known.
(In general: In a reporter assay the amount or activity of a reporter protein is the signal.)

In the next data set the test system is p65. Nature of the data set: TransAM NFκB DNA-binding ELISA of nuclear extracts, p65. It is filed as cell-based, human. The conditions noted are these: HT1080 and HEK293 cells, untreated and TNFα-treated; 5 μM Senexin A, 60 μM TPCK, 10 μM MG115 for 3 hours.
Text: as §1, §2
For orientation: ELISA stands for enzyme-linked immunosorbent assay.

Data set [4] relates to HT1080-derived NFkB-GFP reporter cell line. Briefly: Propidium iodide flow cytometry for dead cells. It is filed as cell-based, human. The conditions noted are these: inhibitor 3 hours then 18 hours TNFα (10 ng/ml). How it is done: (§5) We have compared Senexin A to two known proteasome-targeting NFκB inhibitors, N-tosyl-L-phenylalanine chloromethyl ketone (TPCK) (Ha et al., 2009) and MG115 in regard to their cytotoxicity and their effect on the nuclear translocation of active NFκB. In the experiment shown in FIG. 7, the HT1080-derived NFkB-GFP reporter cell line was seeded in 60 mm plates at 1.5×10^5 cells per plate and cultured overnight before being treated with different NFκB inhibitors at the concentrations indicated in FIG. 7 for 3 hours, followed by 18 hours TNFα (10 ng/ml) stimulation. The treated cells were trypsinized, resuspended in PBS, mixed with 5 μg/ml propidium iodide (PI), and analyzed using LSRII flow cytometer (BD Biosciences) for GFP fluorescence (left panel) and the percentage of dead (PI-positive) cells (right panel).

The test system of data set [5] is NFκB-dependent promoter. Briefly: NFκB-GFP reporter assay, induction by IPTG-inducible p21 (flow cytometric). It is filed as cell-based, human. The note with it: HT1080 p21-9 derived NFκB-GFP reporter cells, 50 mM IPTG for 72 hrs, different concentrations. The method, then:
as §4

Data set [6] concerns NFκB-inducible genes. Briefly: QPCR of NFκB-inducible genes in TNFα-treated wild-type HCT116 cells. The note with it: wild-type HCT116, 5 μM pretreatment 1 hour, 10 ng/ml TNFα 30 minutes. It is filed as cell-based, human. How it is done: as §3
For data set [7], the system named is NFκB-inducible genes. Nature of the data set: QPCR of NFκB-inducible genes in TNFα-treated HEK293 cells. It is filed as cell-based, human. The conditions noted are these: HEK293, 5 μM pretreatment 1 hour, 10 ng/ml TNFα 30 minutes. The method, then:
The cells were seeded in 6-well plates at 6×10^5 cells/well in media containing 3% serum and cultured overnight. The next day, cells were pretreated with 5 μM Senexin A or with DMSO vehicle control for 1 hour and treated with or without 10 ng/ml TNFα for 30 minutes. Cells were then lysed for total RNA purification with the RNeasy Kit (Qiagen). For QPCR analysis of NFκB-inducible genes, cDNA was prepared using Maxima First Strand cDNA Synthesis Kit (Thermo Scientific/Fermentas, K1641) and gene expression was measured by QPCR with gene-specific primers, with RPL13A as a normalization standard, using Maxima SYBR Green/ROX qPCR Master Mix (Thermo Scientific/Fermentas, K0223) and ABI Prism 7900HT Detection system (Life technologies).

For data set [8], the system named is TNFα-induced NFκB-dependent transcription. Briefly: NFkB-GFP reporter flow cytometry after inhibitor and TNFα (GFP fluorescence). It is filed as cell-based, human. The conditions noted are these: HT1080-derived reporter, inhibitor 3 hours then 18 hours TNFα (10 ng/ml). The method, then:
as §5

For data set [9] the following is noted: bone loss therapy (Hiligsmann and Reginster, 2010); cited from earlier work.
The conditions of data set [10]: clinical experience (Cavaletti and Jakubowiak, 2010); cited from earlier work.

“Also recorded” adds a separate entry of the source. Non-standard residues stand in square brackets, D forms with d. Residues, ends and D or L forms follow the SMILES beside them. *: point of attachment. Nva = CCC[C@H](N)C(=O)O; Cbz = O=C(OCc1ccccc1)*

Consider `CC1=C(CC(=O)O)c2cc(F)ccc2/C1=C\c1ccc([S+](C)[O-])cc1` (stereo not shown) [Sulindac], for which the “induction of transcription by p21” value in [1] is listed as “inhibited”.

Take `N#Cc1ccc2ncnc(NCCc3ccccc3)c2c1` [SNX2-1-53]: in the data set with p50, the “amount of active p50 (DNA binding) in nuclear extracts” value (“amount of active p50 (DNA binding)” below) is given as “does not block; also recorded: indistinguishable from the control”. Moreover, the TNFα-induced gene expression entry with NFκB-inducible genes [2] and in the data set with NFκB-inducible genes [6] was “inhibited TNFα-induced gene expression to the same degree” in each case. Moreover, the “TNFα-induced NFκB activity (GFP expression normalized by Hoechst 33342)” value in the data set on NFκB-dependent promoter [3] (10 ng/ml TNFα for 18 hrs) is listed as “inhibited TNFα-induced NFκB activity”. The “basal NFκB activity (normalized GFP expression)” value with NFκB-dependent promoter [3] (untreated (no TNFα)) was “did not significantly inhibit”. Besides, the “amount of active p65 (DNA binding) in nuclear extracts” value (from here on “amount of active p65 (DNA binding)”) with p65 was “does not block; also recorded: indistinguishable from the control”. The “fraction of dead (PI-positive) cells” value in [4] (listed as Senexin A) is “minimal effects on cell viability; also recorded: did not”. The “induction of the NFκB-dependent promoter by p21 (GFP expression)” value was “strongly inhibited” in the data set with NFκB-dependent promoter [5] and “dose dependent inhibition” in the data set with NFκB-dependent promoter [5] (listed as Senexin A). Moreover, in the data set on NFκB-inducible genes [7], the “induction of NFκB-regulated genes by TNFα” value is reported as “drastically inhibited”. For the same compound, the “TNFα-induced NFκB-dependent transcription (GFP fluorescence)” value in data set [8] (listed as Senexin A) was “inhibits NFκB activation; also recorded: inhibited TNFα-induced NFκB-dependent transcription”.

denosumab: in [9], the safety profile result was “good safety profile”.

Regarding “N-tosyl-L-phenylalanine chloromethyl ketone [TPCK, reference compound]”, the “amount of active p50 (DNA binding)” value in the data set on p50 is listed as “strongly decreased”. For the same compound, in the data set with p65, the “amount of active p65 (DNA binding)” value was “strongly decreased”. Further, the “fraction of dead (PI-positive) cells” value in [4] is “strongly increased the fraction of dead cells”. Further, the “TNFα-induced NFκB-dependent transcription (GFP fluorescence)” value in data set [8] is “inhibited TNFα-induced NFκB-dependent transcription”.

With `CCC[C@@H](C=O)NC(=O)[C@H](CC(C)C)NC(=O)[C@H](CC(C)C)NC(=O)OCc1ccccc1` [MG115, reference compound] (Cbz-Leu-Leu-[Nva]-aldehyde), in the data set with p50, the “amount of active p50 (DNA binding)” value is reported as “strongly decreased”. For the same compound, in the data set on p65, the “amount of active p65 (DNA binding)” value is on record as “strongly decreased”. In addition, the “fraction of dead (PI-positive) cells” value in data set [4] was “strongly increased the fraction of dead cells”. In data set [8], the “TNFα-induced NFκB-dependent transcription (GFP fluorescence)” value is “inhibited TNFα-induced NFκB-dependent transcription”.

`CC(C)C[C@H](NC(=O)[C@H](Cc1ccccc1)NC(=O)c1cnccn1)B(O)O` [Bortezomib]: the Bortezomib-induced peripheral neuropathy in data set [10] is listed as 37-44 % of patients.
